Data reported in ChEMBL document CHEMBL1125940 (Bioorg Med Chem Lett, 1991).
Positions of bridges follow the written chain, without caps; N, C: chain ends. Residues, ends and D or L forms follow the SMILES beside them.

Key:
[1] = molecular target: T1, Endothelin-1 receptor (Rattus norvegicus, UniProt P26684); assay: Binding affinity towards Endothelin A receptor in A10 rat thoracic aorta smooth muscle cells using [125I]ET1 as radioligand (Exp 2)
T1 sequence (P26684 whole entry): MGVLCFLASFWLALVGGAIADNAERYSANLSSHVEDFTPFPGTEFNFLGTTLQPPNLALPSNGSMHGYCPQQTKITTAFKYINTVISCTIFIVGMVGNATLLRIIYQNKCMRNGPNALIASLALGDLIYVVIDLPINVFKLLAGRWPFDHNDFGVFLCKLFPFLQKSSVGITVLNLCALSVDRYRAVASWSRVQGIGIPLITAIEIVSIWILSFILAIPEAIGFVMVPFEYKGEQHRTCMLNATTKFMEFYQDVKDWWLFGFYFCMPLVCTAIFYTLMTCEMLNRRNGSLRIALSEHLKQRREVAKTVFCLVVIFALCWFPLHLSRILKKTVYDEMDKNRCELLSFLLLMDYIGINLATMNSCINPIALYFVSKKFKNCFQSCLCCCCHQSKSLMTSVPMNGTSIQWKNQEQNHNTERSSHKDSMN

[2] = molecular target: T1, Endothelin-1 receptor; assay: Binding affinity towards Endothelin A receptor in A10 rat thoracic aorta smooth muscle cells using [125I]ET1 as radioligand (Exp 1)

**Q.** For `CC[C@H](C)[C@H](NC(=O)[C@H](CC(=O)O)NC(=O)[C@H](C)NC(=O)[C@H](Cc1c[nH]cn1)NC(=O)[C@@H]1CSSC[C@H](N)C(=O)N[C@@H](CO)C(=O)N[C@H]2CSSC[C@H](NC(=O)[C@H](CCC(=O)O)NC(=O)[C@H](CCCCN)NC(=O)[C@H](CC(=O)O)NC(=O)[C@H](CCSC)NC(=O)[C@H](CC(C)C)NC(=O)[C@H](CO)NC(=O)[C@H](CO)NC2=O)C(=O)N[C@@H](C(C)C)C(=O)N[C@@H](Cc2ccc(O)cc2)C(=O)N[C@@H](Cc2ccccc2)C(=O)N1)C(=O)N[C@H](C(=O)N[C@@H](Cc1c[nH]c2ccccc12)C(=O)O)[C@@H](C)CC` (H-CSCSSLMDKECVYFCHADIIW-OH; disulfide 1-15, 3-11), which Kd [1] is on record?
**A.** The Kd was 1910 nM.

**Q.** What about the Kd [2] of the same compound?
**A.** Its Kd is 6.6 nM.

**Q.** For `CC[C@H](C)[C@H](NC(=O)[C@H](C)NC(=O)[C@H](CC(C)C)NC(=O)[C@H](Cc1cnc[nH]1)NC(=O)[C@@H]1CSSC[C@H](N)C(=O)N[C@@H](CO)C(=O)N[C@H]2CSSC[C@H](NC(=O)[C@H](CCC(=O)O)NC(=O)[C@H](CCCCN)NC(=O)[C@H](CC(=O)O)NC(=O)[C@H](CCSC)NC(=O)[C@H](CC(C)C)NC(=O)[C@H](CO)NC(=O)[C@H](CO)NC2=O)C(=O)N[C@@H](C(C)C)C(=O)N[C@@H](Cc2ccc(O)cc2)C(=O)N[C@@H](Cc2ccccc2)C(=O)N1)C(=O)N[C@H](C(=O)N[C@@H](Cc1c[nH]c2ccccc12)C(=O)O)[C@@H](C)CC` (H-CSCSSLMDKECVYFCHLAIIW-OH; disulfide 1-15, 3-11), which Kd [1] is on record?
**A.** Its Kd is 80 nM.

**Q.** What about the Kd [2] of the same compound?
**A.** The Kd was 0.7 nM.

**Q.** Which results are given for `CC[C@H](C)[C@H](NC(=O)[C@H](C)NC(=O)[C@H](CC(=O)O)NC(=O)[C@H](CC(C)C)NC(=O)[C@H](Cc1cnc[nH]1)NC(=O)[C@@H]1CSSC[C@H](N)C(=O)N[C@@H](CO)C(=O)N[C@H]2CSSC[C@H](NC(=O)[C@H](CCC(=O)O)NC(=O)[C@H](CCCCN)NC(=O)[C@H](CC(=O)O)NC(=O)[C@H](CCSC)NC(=O)[C@H](CC(C)C)NC(=O)[C@H](CO)NC(=O)[C@H](CO)NC2=O)C(=O)N[C@@H](C(C)C)C(=O)N[C@@H](Cc2ccc(O)cc2)C(=O)N[C@@H](Cc2ccccc2)C(=O)N1)C(=O)N[C@@H](Cc1c[nH]c2ccccc12)C(=O)O` (H-CSCSSLMDKECVYFCHLDAIW-OH; disulfide 1-15, 3-11)?
**A.** Kd [1]: 3120 nM; Kd [2]: 96 nM
